Measurements as given in US20240254138A1, “TRICYCLIC PYRIMIDINES AS CYCLIN-DEPENDENT KINASE 7 (CDK7) INHIBITORS” (JANSSEN PHARMACEUTICA NV, priority 2021, published 2024).
Like-named read-outs stand apart in the source and are kept apart here.

Assays:
[1] = test system: RNA Polymerase II Serine 5 phosphorylation (Rpb1 CTD, downstream substrate of CDK7) in A549 cells; assay: Imaging-based cellular RNA PolII Ser5 phosphorylation assay in A549 cells; assay type: cell-based, human; conditions: wild-type CDK7, RNA PolII Ser5 phosphorylation, averaged over all measurements; for IC50: Homo sapiens, A549, A549 cells, read-out: CDK7_A549 Wild-type CDK7 (pIC50) (converted)
Outline: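 IC50 derived by fitting % control (DMSO high, 10 μM reference low) against concentration, with Hill slope. Readout: high-content imaging of phospho-Ser5 Rpb1 CTD antibody staining in fixed, permeabilized A549 cells exposed to compound 3 h after 20 h culture in 1% FBS DMEM.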

[2] = test system: RNA Polymerase II Serine 5 phosphorylation in A549 cells overexpressing CDK7-mutant (C312S); assay: Imaging-based cellular RNA PolII Ser5 phosphorylation assay in A549 cells overexpressing CDK7-mutant (C312S); assay type: cell-based, human; conditions: RNA PolII Ser5 phosphorylation, averaged over all measurements; for IC50: Homo sapiens, A549, A549 cells overexpressing CDK7-mutant (C312S), read-out: CDK7_A549 mutant hCDK7(pIC50) (converted)
Outline: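 Readout was automated imaging of anti-phospho-Ser5 Rpb1 CTD immunofluorescence, with IC50 fitted to % control versus concentration. Cells were A549 stably overexpressing non-covalently targetable CDK7 C312S alongside wild-type, exposed to compound 3 h at 37 °C. DMSO and 10 μM reference compound served as controls.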

[3] = biological target: CDK7/cyclinH/MAT1 trimeric complex (Homo sapiens, UniProt P50613); assay: In vitro CDK7 assay, potency of irreversible covalent inhibitors (kinact/KI), coupled PK/LDH ADP readout at 340 nm; conditions: for kinact: read-out: CDK7 (20 nM enz.) (kinact, s^−1), 20 nM enzyme
[4] = CDK7 (20 nM enz.) (KI, μM), 20 nM enzyme
[5] = read-out: CDK7 (20 nM enz.) (kinact/KI, M^−1*s^−1), 20 nM enzyme

CDK7/cyclinH/MAT1 trimeric complex, sequence (P50613 whole entry): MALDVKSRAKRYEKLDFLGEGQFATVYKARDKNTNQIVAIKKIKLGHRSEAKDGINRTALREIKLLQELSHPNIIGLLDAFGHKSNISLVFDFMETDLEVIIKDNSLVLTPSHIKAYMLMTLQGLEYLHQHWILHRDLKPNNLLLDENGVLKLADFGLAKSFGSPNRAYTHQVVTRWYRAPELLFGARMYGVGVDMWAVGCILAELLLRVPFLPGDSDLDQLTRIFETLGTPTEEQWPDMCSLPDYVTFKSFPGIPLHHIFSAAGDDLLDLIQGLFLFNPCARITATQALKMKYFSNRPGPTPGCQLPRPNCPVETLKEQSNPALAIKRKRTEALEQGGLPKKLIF
CDK7/cyclinH/MAT1 trimeric complex, sequence (P51946 whole entry partner): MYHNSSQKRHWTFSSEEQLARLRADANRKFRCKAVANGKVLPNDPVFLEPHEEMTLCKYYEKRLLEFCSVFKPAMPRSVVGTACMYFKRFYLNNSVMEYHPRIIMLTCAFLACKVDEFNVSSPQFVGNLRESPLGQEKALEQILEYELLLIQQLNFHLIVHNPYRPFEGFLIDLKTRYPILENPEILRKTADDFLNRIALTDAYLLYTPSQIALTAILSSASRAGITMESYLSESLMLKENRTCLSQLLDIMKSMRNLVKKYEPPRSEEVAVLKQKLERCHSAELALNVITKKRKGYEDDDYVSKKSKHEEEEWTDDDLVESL
CDK7/cyclinH/MAT1 trimeric complex, sequence (P51948 whole entry partner): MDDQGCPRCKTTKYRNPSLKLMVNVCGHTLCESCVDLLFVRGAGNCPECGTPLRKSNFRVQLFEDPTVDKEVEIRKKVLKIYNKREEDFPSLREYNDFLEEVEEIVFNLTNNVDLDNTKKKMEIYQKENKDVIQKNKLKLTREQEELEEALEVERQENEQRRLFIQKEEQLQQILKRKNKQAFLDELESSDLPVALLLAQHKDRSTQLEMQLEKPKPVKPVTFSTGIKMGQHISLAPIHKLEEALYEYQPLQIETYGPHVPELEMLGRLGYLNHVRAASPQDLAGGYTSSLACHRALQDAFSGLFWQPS

SMILES | IC50 [1] | IC50 [2] | kinact/KI ([3]; read-out: CDK7 (20 nM enz.) (kobs/[I], M^−1*s^−1), 20 nM enzyme) | Ki [3, 4] | kinact [3] | kinact/KI [3, 5] | CDK7_A549 Wild-type CDK7 (pIC50) ([1]; A549 cells) | CDK7_A549 mutant hCDK7(pIC50) ([2]; A549 cells overexpressing CDK7-mutant (C312S)) | CDK7 (20 nM enz.) (kinact, s^−1) ([3]; 20 nM enzyme) | CDK7 (20 nM enz.) (kinact/KI, M^−1*s^−1) ([3]; 20 nM enzyme) | Ki ([3]; read-out: CDK7 (20 nM enz.) (KI), 20 nM enzyme)
C=CC(=O)N1CC(N2CC(c3cc(C#N)c4c(c3)Nc3nccc(C5CCOCC5)c3[C@@H](C)O4)C2)C1 (single isomer, unassigned) [Compound 292] | 56.2 nM | 8.32 µM | 802 M⁻¹ s⁻¹ | – | – | – | – | – | – | – | –
C=CC(=O)N1CCC(N2CC(c3cc4c(c(C#N)n3)OCc3c(N5CCOCC5)ccnc3N4)C2)CC1 [Compound 384] | 355 nM | 5.13 µM | – | 0.03 µM | 7.49e-06 s⁻¹ | 249 M⁻¹ s⁻¹ | – | – | – | – | –
C=CC(=O)N1CC[C@@H](N2CC(c3cc4c(c(C5CC5)n3)OCc3c(N5CCOCC5)ccnc3N4)C2)C1 (single isomer, unassigned) [Compound 323] | 83.2 nM | 7.94 µM | – | 0.0217 µM | 6.41e-05 s⁻¹ | 2950 M⁻¹ s⁻¹ | – | – | – | – | –
C=CC(=O)N1CC(N2CC[C@H](c3ccc4c(c3)Nc3nccc(N5CCOCC5)c3CO4)[C@@H](F)C2)C1 (single isomer, unassigned) [Compound 109] | – | – | – | – | – | – | 5.55 | <5 | 1.425e-05 s⁻¹ | 5.9 M⁻¹ s⁻¹ | 2.42 µM
C=CC(=O)N1CC[C@@H](N2CC(c3cc(C)c4c(c3)Nc3nccc(N5CCOCC5)c3CO4)C2)C1 (single isomer, unassigned) [Compound 149] | 50.1 nM | > 10 µM | – | 0.0542 µM | 6.66e-05 s⁻¹ | 1230 M⁻¹ s⁻¹ | – | – | – | – | –
C=CC(=O)N1CC[C@@H](N2CCC(c3cc4c(c(C)n3)OCc3c(N5CCOCC5)ccnc3N4)CC2)C1 (single isomer, unassigned) [Compound 184] | 32.4 nM | > 10 µM | – | 0.0446 µM | 6.03e-05 s⁻¹ | 1350 M⁻¹ s⁻¹ | – | – | – | – | –
CC#CC(=O)N1CC(n2cc(-c3cc4c(c(C)n3)O[C@@H](C)c3c(N5CCOCC5)ccnc3N4)cn2)C1 (single isomer, unassigned) [Compound 437] | 170 nM | > 10 µM | – | 0.0822 µM | 2.31e-05 s⁻¹ | 282 M⁻¹ s⁻¹ | – | – | – | – | –
C=CC(=O)N1CC(N2CCC(c3ccc4c(c3)Nc3nccc(N5CCc6nn(C)cc6C5)c3CO4)CC2)C1 [Compound 132] | 363 nM | > 10 µM | – | 0.312 µM | 7.08e-05 s⁻¹ | 227 M⁻¹ s⁻¹ | – | – | – | – | –
C=CC(=O)N1CC[C@@H](N2CCC(c3cc4c(c(C)n3)OCc3c(N5CCOCC5)ccnc3N4)CC2)C1 (single isomer, unassigned) [Compound 282] | 30.9 nM | > 10 µM | – | 0.0397 µM | 5.01e-05 s⁻¹ | 1260 M⁻¹ s⁻¹ | – | – | – | – | –
C#CCCN(C)C/C=C/C(=O)N1CC(N2CCC(c3ccc4c(c3)Nc3nccc(N5CCOCC5)c3C(C)O4)CC2)C1 (racemic) [Compound 143] | 123 nM | > 10 µM | – | 0.0404 µM | 6.96e-05 s⁻¹ | 1720 M⁻¹ s⁻¹ | – | – | – | – | –
C=CC(=O)N1CC[C@@H](N2CC(c3cc(C)c4c(c3)Nc3nccc(-c5cnn(C)c5)c3CO4)C2)C1 (single isomer, unassigned) [Compound 362] | 58.9 nM | 10 µM | – | 0.0325 µM | 6.59e-05 s⁻¹ | 2030 M⁻¹ s⁻¹ | – | – | – | – | –
C=CC(=O)N1CC[C@H](N2CC(c3cc4c(c(C)n3)OCc3c(C5CCOCC5)ccnc3N4)C2)[C@H](F)C1 (mixture of isomers) [Compound 236] | 162 nM | 7.41 µM | – | 0.084 µM | 3.05e-05 s⁻¹ | 362 M⁻¹ s⁻¹ | – | – | – | – | –
CC#CC(=O)N1CC[C@@H](N2CC(c3cc(C)c4c(c3)Nc3nccc(C5CCOCC5)c3CO4)C2)C1 (single isomer, unassigned) [Compound 296] | 224 nM | > 10 µM | – | 0.067 µM | 3.52e-05 s⁻¹ | 526 M⁻¹ s⁻¹ | – | – | – | – | –
C=CC(=O)N1CC(N2CC[C@H](c3cc4c(c(C)n3)OCc3c(N5CCOCC5)ccnc3N4)N(C)CC2)C1 (single isomer, unassigned) [Compound 452] | 64.6 nM | 6.92 µM | – | 0.0493 µM | 4.92e-05 s⁻¹ | 997 M⁻¹ s⁻¹ | – | – | – | – | –
C=CC(=O)N1CC(N2CCC(c3ccc4c(c3)Nc3nccc(-c5cnn(C)c5)c3[C@H](C)O4)CC2)C1 (single isomer, unassigned) [Compound 232] | 4170 nM | > 10 µM | – | 10.1 µM | 0.000115 s⁻¹ | 11.3 M⁻¹ s⁻¹ | – | – | – | – | –
